Test results reported in US7759345B2, “Antitumoral derivatives of ET-743” (priority 2001, dated 2010).
Like-named read-outs stand apart in the source and are kept apart here.

Legend:
[1] = test system: Heart
Source text: (§9) Toxicity was asssessed by the methods reported in Toxicology in Vitro, 15 (2001) 571-577, J. Luber Narod et al.: “Evaluation of the use of in vitro methodolodies as tools for screening new compounds for potential in vivo toxicity”.

[2] = test system: MCF-7; test: Inhibition of cells growth by colorimetric assay (SRB), MCF-7; type: cell-based; settings: for CC50 / GI50: Homo sapiens; for CC50: MCF7, 48 h; for GI50: MCF7
Procedure: (§1) 2°.—Inhibition of Cells Growth by Colorimetric Assay.
(§2) A colorimetric type of assay, using sulforhodamine B (SRB) reaction has been adapted for a quantitative measurement of cell growth and viability [following the technique described by Philip Skehan, et al. (1990), New colorimetric cytotoxicity assay for anticancer drug screening, J. Natl. Cancer Inst., 82:1107-1112]
(§3) This form of the assay employs 96 well cell culture microplates of 9 mm diameter (Faircloth, 1988; Mosmann, 1983). Most of the cell lines are obtained from American Type Culture Collection (ATCC) derived from different human cancer types.
(§4) Cells are maintained in RPMI 1640 10% FBS, supplemented with 0.1 g/l penicillin and 0.1 g/l streptomycin sulfate and then incubated at 37° C., 5% CO2 and 98% humidity. For the experiments, cells were harvested from subconfluent cultures using trypsin and resuspended in fresh medium before plating.
(§5) Cells are seeded in 96 well microtiter plates, at 5×10^3 cells per well in aliquots of 195 μl medium, and they are allowed to attach to the plate surface by growing in drug free medium for 18 hours. Afterward, samples are added in aliquots of 5 μl in a ranging from 10 to 10^−8 μg/ml, dissolved in DMSO/EtOH/PBS (0.5:0.5:99). After 48 hours exposure, the antitumor effect are measured by the SRB methodology: cells are fixed by adding 50 μl of cold 50% (wt/vol) trichloroacetic acid (TCA) and incubating for 60 minutes at 4° C. Plates are washed with deionized water and dried. One hundred μl of SRB solution (0.4% wt/vol in 1% acetic acid) is added to each microtiter well and incubated for 10 minutes at room temperature. Unbound SRB is removed by washing with 1% acetic acid. Plates are air dried and bound stain is solubilized with Tris buffer. Optical densities are read on a automated spectrophotometric plate reader at a single wavelength of 490 nm.
(§6) The values for mean+/−SD of data from triplicate wells are calculated. Some parameters for cellular responses can be calculated: GI=growth inhibition, TGI=total growth inhibition (cytostatic effect) and LC=cell killing (cytotoxic effect).
(§7) Obtained results may predict the usefulness of a certain drug as a potential cancer treatment. For this technique, compounds which show GI50 values smaller than 10 μg/ml are selected to continue with further studies. GI50's data allow to predict that not only could a drug be cystostatic, but also it could have a potential in terms of tumor reduction.

[3] = test system: Liver
Source text: as §9

[4] = test system: SK-MEL-28; test: Inhibition of cells growth by colorimetric assay (SRB), SK-MEL-28; type: cell-based; settings: for GI50 / CC50: Homo sapiens, SK-MEL-28, 48 h
Summary of the method: (§8)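 Human cancer and endothelial lines are seeded at 5×10^3 cells per well and, after 18 h, treated for 48 h with compound dissolved in DMSO/EtOH/PBS (0.5:0.5:99) at 10 to 10^−8 μg/ml. Cell mass is quantified by SRB staining (OD 490 nm), and growth inhibition, total growth inhibition and cell kill are calculated from triplicate wells.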

[5] = test system: A-549; test: Inhibition of cells growth by colorimetric assay (SRB), A-549; type: cell-based; settings: for GI50 / LC50 (concentration for 50% cell killing): Homo sapiens, A549, 48 h
Summary of the method: as §8

[6] = test system: Skeletal
Source text: as §9

[7] = test system: DU-145; test: Inhibition of cells growth by colorimetric assay (SRB), DU-145; type: cell-based; settings: for GI50 / CC50: Homo sapiens, DU-145, 48 h
Summary of the method: as §8

[8] = test system: MDA-MB-231; test: Inhibition of cells growth by colorimetric assay (SRB), MDA-MB-231; type: cell-based; settings: for CC50 / GI50: Homo sapiens; for CC50: MDA-MB-231, 48 h; for GI50: MDA-MB-231
Procedure: as §1, §2, §3, §4, §5, §6, §7

[9] = test system: HT-29; test: Inhibition of cells growth by colorimetric assay (SRB), HT-29; type: cell-based; settings: for GI50 / LC50 (concentration for 50% cell killing): Homo sapiens, HT-29, 48 h
Summary of the method: as §8

[10] = test system: A-498; test: Inhibition of cells growth by colorimetric assay (SRB), A-498; type: cell-based; settings: for LC50 / GI50: Homo sapiens; for LC50: A498, 48 h; for GI50: A498
Procedure: as §1, §2, §3, §4, §5, §6, §7

[11] = test system: Kidney
Source text: as §9

[12] = test system: Myelo
Source text: as §9

[13] = test system: SW620; test: Inhibition of cells growth by colorimetric assay (SRB), SW620; type: cell-based; settings: for LC50 / GI50: Homo sapiens; for LC50: SW-620, 48 h; for GI50 / TGI SW-620: SW-620
Procedure: as §1, §2, §3, §4, §5, §6, §7

[14] = MCF, SRB, 48 hours exposure, read-out: GI50 MCF
[15] = MEL-28, SRB, 48 hours exposure, read-out: GI50 MEL-28
[16] = read-out: LC50 MEL-28, MEL-28, SRB, 48 hours exposure
[17] = A-549, SRB, 48 hours exposure, read-out: GI50 A-549
[18] = read-out: LC50 A-549, A-549, SRB, 48 hours exposure
[19] = DU-145, SRB, 48 hours exposure, read-out: GI50 DU-145
[20] = read-out: LC50 DU-145, DU-145, SRB, 48 hours exposure
[21] = MB-231, SRB, 48 hours exposure, read-out: GI50 MB-231
[22] = HT-29, SRB, 48 hours exposure, read-out: GI50 HT-29
[23] = read-out: LC50 HT-29, HT-29, SRB, 48 hours exposure
[24] = A-498, SRB, 48 hours exposure, read-out: GI50 A-498
[25] = SRB, 48 hours exposure, read-out: GI50 SW-620

COc1cc2c(cc1OC(=O)CCc1ccccc1)CCN[C@]21CS[C@@H]2c3c(OC(C)=O)c(C)c4c(c3[C@H](COC1=O)N1C2[C@H]2c3c(cc(C)c(OC)c3O)C[C@@H]([C@@H]1O)N2C)OCO4 (some centres unmarked) [Compound 72]
Toxicity Data Heart [1]: 3.78E-08
CC50 ([2]; read-out: LC50 MCF): 11.2 nM
GI50 [2, 14]: 2.24 nM
TGI MCF ([2]; MCF, SRB, 48 hours exposure): 4.47E-09
Toxicity Data Liver [3]: 1.55E-08
GI50 [4, 15]: 2.24 nM
CC50 [4, 16]: 7.83 nM
TGI MEL-28 ([4]; MEL-28, SRB, 48 hours exposure): 3.36E-09
TGI A-549 ([5]; A-549, SRB, 48 hours exposure): 3.36E-09
GI50 [5, 17]: 1.12 nM
LC50 (concentration for 50% cell killing) [5, 18]: 7.83 nM
Toxicity Data Skeletal [6]: 1.32E-08
TGI DU-145 ([7]; DU-145, SRB, 48 hours exposure): 3.36E-09
GI50 [7, 19]: 2.24 nM
CC50 [7, 20]: 8.95 nM
CC50 ([8]; read-out: LC50 MB-231): 11.2 nM
GI50 [8, 21]: 2.24 nM
TGI MB-231 ([8]; MB-231, SRB, 48 hours exposure): 3.36E-09
TGI HT-29 ([9]; HT-29, SRB, 48 hours exposure): 7.83E-09
GI50 [9, 22]: 2.24 nM
LC50 (concentration for 50% cell killing) [9, 23]: 11.2 nM
TGI A-498 ([10]; A-498, SRB, 48 hours exposure): 4.47E-09
LC50 ([10]; read-out: LC50 A-498): 11.2 nM
GI50 [10, 24]: 2.24 nM
Toxicity Data Kidney [11]: 1.85E-08
Toxicity Data Myelo [12]: 2.15E-08
LC50 ([13]; read-out: LC50 SW-620): 11.2 nM
GI50 [13, 25]: 2.24 nM
TGI SW-620 ([13]; SRB, 48 hours exposure): 3.36E-09

COc1cc2c(cc1OC(=O)CCCl)CCN[C@]21CS[C@@H]2c3c(OC(C)=O)c(C)c4c(c3[C@H](COC1=O)N1C2[C@H]2c3c(cc(C)c(OC)c3O)C[C@@H]([C@@H]1O)N2C)OCO4 (some centres unmarked) [Compound 73]
CC50 ([2]; read-out: LC50 MCF): 11.7 nM
GI50 [2, 14]: 0.704 nM
TGI MCF ([2]; MCF, SRB, 48 hours exposure): 3.52E-09
GI50 [4, 15]: 0.822 nM
CC50 [4, 16]: 3.52 nM
TGI MEL-28 ([4]; MEL-28, SRB, 48 hours exposure): 9.39E-10
TGI A-549 ([5]; A-549, SRB, 48 hours exposure): 2.35E-09
GI50 [5, 17]: 0.352 nM
LC50 (concentration for 50% cell killing) [5, 18]: 5.87 nM
TGI DU-145 ([7]; DU-145, SRB, 48 hours exposure): 3.52E-10
GI50 [7, 19]: 0.235 nM
CC50 [7, 20]: 0.939 nM
CC50 ([8]; read-out: LC50 MB-231): 1.17 nM
GI50 [8, 21]: 0.235 nM
TGI MB-231 ([8]; MB-231, SRB, 48 hours exposure): 4.69E-11
TGI HT-29 ([9]; HT-29, SRB, 48 hours exposure): 7.04E-09
GI50 [9, 22]: 0.939 nM
LC50 (concentration for 50% cell killing) [9, 23]: 10.6 nM
TGI A-498 ([10]; A-498, SRB, 48 hours exposure): 7.04E-10
LC50 ([10]; read-out: LC50 A-498): 3.52 nM
GI50 [10, 24]: 0.352 nM
LC50 ([13]; read-out: LC50 SW-620): 9.39 nM
GI50 [13, 25]: 0.352 nM
TGI SW-620 ([13]; SRB, 48 hours exposure): 1.17E-09

COc1cc2c(cc1O)CCN(C)[C@]21CS[C@@H]2c3c(OC(C)=O)c(C)c4c(c3[C@H](COC1=O)N1C2[C@@H]2N[C@@H](Cc3cc(C)c(OC)c(O)c32)[C@@H]1C#N)OCO4 (some centres unmarked) [Compound 209]
CC50 ([2]; read-out: MCF LC50): 5.19 nM
GI50 ([2]; SRB assay, 48 hours exposure, read-out: MCF GI50): 0.26 nM
MCF TGI ([2]; SRB assay, 48 hours exposure): 7.79E-10
GI50 ([4]; SRB assay, 48 hours exposure, read-out: MEL-28 GI50): 0.0649 nM
CC50 ([4]; read-out: MEL-28 LC50, SRB assay, 48 hours exposure): 1.3 nM
MEL-28 TGI ([4]; SRB assay, 48 hours exposure): 2.60E-10
GI50 ([5]; SRB assay, 48 hours exposure, read-out: A-549 GI50): 0.0909 nM
LC50 (concentration for 50% cell killing) ([5]; read-out: A-549 LC50, SRB assay, 48 hours exposure): 1.17 nM
A-549 TGI ([5]; SRB assay, 48 hours exposure): 3.90E-10
GI50 ([7]; SRB assay, 48 hours exposure, read-out: DU-145 GI50): 0.013 nM
CC50 ([7]; read-out: DU-145 LC50, SRB assay, 48 hours exposure): 0.13 nM
DU-145 TGI ([7]; SRB assay, 48 hours exposure): 3.90E-11
CC50 ([8]; read-out: MB-231 LC50): 1.3 nM
GI50 ([8]; SRB assay, 48 hours exposure, read-out: MB-231 GI50): 0.013 nM
MB-231 TGI ([8]; SRB assay, 48 hours exposure): 2.60E-10
GI50 ([9]; SRB assay, 48 hours exposure, read-out: HT-29 GI50): 0.0779 nM
LC50 (concentration for 50% cell killing) ([9]; read-out: HT-29 LC50, SRB assay, 48 hours exposure): 1.17 nM
HT-29 TGI ([9]; SRB assay, 48 hours exposure): 3.90E-10
LC50 ([10]; read-out: A-498 LC50): 1.3 nM
GI50 ([10]; SRB assay, 48 hours exposure, read-out: A-498 GI50): 0.13 nM
A-498 TGI ([10]; SRB assay, 48 hours exposure): 3.90E-10
LC50 ([13]; read-out: SW-620 LC50): 1.3 nM
GI50 ([13]; SRB assay, 48 hours exposure, read-out: SW-620 GI50): 0.0779 nM
SW-620 TGI ([13]; SRB assay, 48 hours exposure): 3.90E-10
